Measured values taken from patent US20230241014A1, “MEK-INHIBITORS FOR THE TREATMENT OR PREVENTION OF CORONAVIRUS INFECTIONS AND/OR COVID-19 CYTOKINE STORM” (priority 2020, published 2023).
Like-named read-outs stand apart in the source and are kept apart here.

Tests used:
[1] = tested on: MxA and IL8 mRNA expression; test: poly (I:C) stimulation of A549 cells, MxA and IL8 mRNA; conditions: A549, 100 ng/ml poly (I:C), 24 h
SARS-CoV-2 strain FI = test: Plaque assay, infection of Vero cells with SARS-CoV-2 upon MEK inhibition; assay type: cell-based; conditions: MOI 0.01, 50 μM, 24 h, 36 h and 48 h
Method: To determine the virus titer a standard plaque assay was performed. Vero cells were infected with SARS-CoV-2 strain FI (MOI 0.01). 1 hour post infection, the cells were treated with 50 μM ATR-002 or the respective amount of DMSO as a control. The compounds were present in the culture medium during the complete infection time. After 24, 36 and 48 hpi, supernatants were collected and virus titers quantified by plaque assay below.
Vero E6 cells were seeded at 100% confluency in 6-well plates (Greiner Bio-One, Cat. 657-160). 6-fold dilutions of virus samples were prepared in Vero E6 infection medium (IMDM, Gibco, Cat. 12440-053) supplemented with 5% FCS (Capricorn, Cat. FBS-12A) and 1% Penicillin/Streptomycin (Sigma Aldrich Cat. P4333). The cells were washed once with Vero E6 infection medium before infection with 1 mL per well of the virus dilutions for 1 h at 37° C., 5% CO2. […] The virus titer was calculated based on the number of plaques per well and the respective dilution factor.

[2] = tested on: peripheral blood mononuclear cells (PBMC's); test: T-Cell Inflammation Inhibition Assay (PHA Stimulation); assay type: cell-based, human; conditions: ATR-002 100, 50, 25 μM, Dexamethasone 100 nM, 24 h
SARS-CoV-2 = assay type: cell-based; conditions: Caco-2, Vero E6, Calu-3; MOI 0.01; 100, 75, 50 μM; 24 h
SARS-CoV-2 (FI) = assay type: cell-based
Calu-3 cells = test: Cytotoxicity evaluation in Calu-3 cells; assay type: cell-based, Homo sapiens; conditions: Calu-3, 72 h treatment
Method: In a next step, Calu-3 cells were incubated with increasing amounts of ATR-002 over 24, 48 or 72 hours. Specifically, Calu-3 cells were infected with SARS-CoV-2 (FI) using a MOI of 0.01. 1 h.p.i. cells were treated with ATR-002. Mock, SARS-CoV-2 and DMSO served as controls. […] Untreated (SARS-CoV-2) and DMSO (0.1%) treated cells served as negative controls. […] DMSO was used as reference. […] Data in combination with (C) was used to calculate the CC50 value and the selectivity index (SI).

ACE2 = ACE2 expression in Calu-3 cells (immunofluorescence microscopy, WES); assay type: cell-based, Homo sapiens; conditions: 100 μM, 24 h
Method: After this, it was tested whether ACE2 expression is reduced in cells after ATR-002 treatment. Calu-3 cells were treated with ATR-002 for 24 hours and the results were analysed via immunofluorescence microscopy and WES technology. Specifically, Calu-3 cells were seeded on glass cover slips in 24-well plates, 1×10^5 cells per well and incubated for 48 h at 37° C., 5% CO2 After washing the cells with medium (IMDM with 10% FBS and 1% P/S), 1 mL of 100 μM ATR-002 in medium or 1 mL 1% DMSO in medium (solvent control) were added to the wells and incubated for 24 h at 37° C., 5% CO2.
Then the wells were washed once with PBS and fixed with 300 μL/well 4% PFA in PBS for 10 minutes at room temperature. […] The slides were let dry at 4° C. in the dark and then analysed using a confocal laser scanning microscope (LSM800, Zeiss).

[3] = tested on: peripheral blood mononuclear cells (PBMC's); test: T-cell Inflammation Inhibition Assay (Anti-CD3 Stimulation); assay type: cell-based, human; conditions: ATR-002 100, 50, 25 μM, Dexamethasone 100 nM, 24 h
[4] = tested on: peripheral blood mononuclear cells (PBMC's); test: T-Cell Inflammation Inhibition Assay (ConA Stimulation); assay type: cell-based, human; conditions: ATR-002 100, 50, 25 μM, Dexamethasone 100 nM, 24 h
[5] = tested on: cytokine & chemokine gene expression in lungs; test: Acute lung injury (ALI) mouse model, LPS induced cytokine and chemokine gene expression; assay type: in vivo; conditions: LPS 5 mg/kg i.p.; 25 mg/kg i.p. 1 h post stimulation; 6 h post treatment

SMILES: O=C(O)c1ccc(F)c(F)c1Nc1ccc(I)cc1Cl [ATR-002, 2-(2-chloro-4-iodophenylamino)-N-3,4-difluoro benzoic acid]
- MxA mRNA expression (anti-viral interferon system) [1]: constant expression of MxA mRNA
- IL8 mRNA expression ([1]; even low concentrations): strong reduction
- viral load (plaque assay) (SARS-CoV-2 strain FI): lower viral load than control cells
- inhibition of cytokine/chemokine stimulation (summary) [2]: significant, dose dependent inhibition
- virus titer via RT-qPCR, effect across cell types (SARS-CoV-2): effect seen on all cell types was comparable
- production of progeny viral particles (SARS-CoV-2 (FI); A549-ACE2/TMPRSS2, MOI 0.001, 100 μM): reduced the production of progeny viral particles
- production of progeny viral particles (SARS-CoV-2 (FI); A549-ACE2/TMPRSS2, MOI 0.01, 100 μM): did not affect the production of progeny viral particles
- production of progeny viral particles (SARS-CoV-2 (FI); Calu-3, MOI 0.001, 100 μM): reduced the production of progeny viral particles
- cytotoxicity at antiviral concentrations (Calu-3 cells): non-toxic concentration range
- ACE2 on Calu-3 cells (ACE2): reduction of ACE2
- inhibition of cytokine/chemokine stimulation (summary) [3]: significant, dose dependent inhibition
- inhibition of cytokine/chemokine stimulation (summary) [4]: significant, dose dependent inhibition
- IL-1beta gene expression in lung [5]: decrease
- IL-8 gene expression in lung [5]: decrease
- IP-10 gene expression in lung [5]: decrease
- MCP-1 gene expression in lung [5]: decrease
- MIP-1beta gene expression in lung [5]: decrease
- TNF-alpha gene expression in lung [5]: decrease
